Results published in PubChem BioAssay (NCI).
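48-hour exposure; five concentrations; linearly interpolated endpoints. TGI is the concentration that stops growth completely.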

How the values were obtained:
Experiment in all cases: inhibition of tumour cell growth, NCI panel, 48 h
[1] = system: 786-0 renal
[2] = system: A498 renal
[3] = system: A549 NSCLC
[4] = system: ACHN renal
[5] = system: BT-549 breast
[6] = system: COLO 205 colon
[7] = system: DU-145 prostate
[8] = system: EKVX NSCLC
[9] = system: HCC-2998 colon
[10] = system: HCT-116 colon
[11] = system: HCT-15 colon
[12] = system: HOP-62 NSCLC
[13] = system: HOP-92 NSCLC
[14] = system: HS 578T breast
[15] = system: HT29 colon
[16] = system: IGROV1 ovarian
[17] = system: K-562 leukemia
[18] = system: KM12 colon
[19] = system: LOX IMVI melanoma
[20] = system: M14 melanoma
[21] = system: MALME-3M melanoma
[22] = system: MCF7 breast
[23] = system: MDA-MB-231 breast
[24] = system: MDA-MB-435
[25] = system: MDA-N
[26] = system: MOLT-4 leukemia
[27] = system: NCI-H226 lung
[28] = system: NCI-H23 lung
[29] = system: NCI-H460 lung
[30] = system: NCI-H522 lung
[31] = system: NCI/ADR-RES ovarian
[32] = system: OVCAR-3 ovarian
[33] = system: OVCAR-4 ovarian
[34] = system: OVCAR-5 ovarian
[35] = system: OVCAR-8 ovarian
[36] = system: PC-3 prostate
[37] = system: RPMI-8226 leukemia
[38] = system: SF-268 CNS
[39] = system: SF-295 CNS
[40] = system: SF-539 CNS
[41] = system: SK-MEL-2 melanoma
[42] = system: SK-MEL-28 melanoma
[43] = system: SK-MEL-5 melanoma
[44] = system: SK-OV-3 ovarian
[45] = system: SN12C renal
[46] = system: SNB-19 CNS
[47] = system: SNB-75 CNS
[48] = system: SW-620 colon
[49] = system: T-47D breast
[50] = system: TK-10 renal
[51] = system: U251 CNS
[52] = system: UACC-257 melanoma
[53] = system: UACC-62 melanoma
[54] = system: UO-31 renal
[55] = system: CAKI-1 renal
[56] = system: HL-60(TB) leukemia
[57] = system: RXF 393 renal
[58] = system: SR leukemia
[59] = system: CCRF-CEM leukemia

CN(Cc1cnc2nc(N)nc(N)c2n1)c1ccc(C(=O)NCS(=O)(=O)O)cc1
TGI [1]: > 100 µM
TGI [2]: > 100 µM
TGI [3]: > 100 µM
TGI [4]: > 100 µM
TGI [5]: > 100 µM
TGI [6]: > 100 µM
TGI [7]: 82.7 µM
TGI [8]: > 100 µM
TGI [9]: > 100 µM
TGI [10]: > 100 µM
TGI [11]: > 100 µM
TGI [12]: > 100 µM
TGI [13]: > 100 µM
TGI [14]: > 100 µM
TGI [15]: > 100 µM
TGI [16]: > 100 µM
TGI [17]: > 100 µM
TGI [18]: > 100 µM
TGI [19]: > 100 µM
TGI [20]: > 100 µM
TGI [21]: > 100 µM
TGI [22]: > 100 µM
TGI [23]: > 100 µM
TGI [24]: > 100 µM
TGI [25]: > 100 µM
TGI [26]: > 100 µM
TGI [27]: > 100 µM
TGI [28]: > 100 µM
TGI [29]: > 100 µM
TGI [30]: > 100 µM
TGI [31]: > 100 µM
TGI [32]: > 100 µM
TGI [33]: > 100 µM
TGI [34]: > 100 µM
TGI [35]: > 100 µM
TGI [36]: > 100 µM
TGI [37]: > 100 µM
TGI [38]: > 100 µM
TGI [39]: > 100 µM
TGI [40]: > 100 µM
TGI [41]: > 100 µM
TGI [42]: > 100 µM
TGI [43]: > 100 µM
TGI [44]: > 100 µM
TGI [45]: > 100 µM
TGI [46]: > 100 µM
TGI [47]: > 100 µM
TGI [48]: > 100 µM
TGI [49]: > 100 µM
TGI [50]: > 100 µM
TGI [51]: > 100 µM
TGI [52]: > 100 µM
TGI [53]: > 100 µM
TGI [54]: > 100 µM

O=[As](O)(O)c1ccc(N=Nc2ccc([As](=O)(O)O)cc2)cc1
TGI [1]: > 100 µM
TGI [2]: > 100 µM
TGI [3]: > 100 µM
TGI [4]: > 100 µM
TGI [5]: > 100 µM
TGI [55]: > 100 µM
TGI [7]: > 100 µM
TGI [8]: > 100 µM
TGI [10]: > 100 µM
TGI [11]: > 100 µM
TGI [56]: > 100 µM
TGI [12]: > 100 µM
TGI [13]: > 100 µM
TGI [14]: > 100 µM
TGI [15]: > 100 µM
TGI [16]: > 100 µM
TGI [17]: > 100 µM
TGI [18]: > 100 µM
TGI [19]: > 100 µM
TGI [20]: > 100 µM
TGI [21]: > 100 µM
TGI [23]: > 100 µM
TGI [24]: > 100 µM
TGI [25]: > 100 µM
TGI [26]: > 100 µM
TGI [27]: > 100 µM
TGI [28]: > 100 µM
TGI [29]: > 100 µM
TGI [30]: > 100 µM
TGI [31]: > 100 µM
TGI [32]: > 100 µM
TGI [33]: > 100 µM
TGI [34]: > 100 µM
TGI [35]: > 100 µM
TGI [36]: > 100 µM
TGI [57]: > 100 µM
TGI [38]: > 100 µM
TGI [39]: > 100 µM
TGI [41]: > 100 µM
TGI [42]: > 100 µM
TGI [43]: > 100 µM
TGI [45]: > 100 µM
TGI [46]: > 100 µM
TGI [58]: > 100 µM
TGI [48]: > 100 µM
TGI [49]: > 100 µM
TGI [50]: > 100 µM
TGI [51]: > 100 µM
TGI [52]: > 100 µM
TGI [53]: > 100 µM
TGI [54]: > 100 µM

Cc1n[nH]c(=O)n1/N=C/c1cccs1
TGI [1]: > 100 µM
TGI [2]: > 100 µM
TGI [3]: > 100 µM
TGI [4]: > 100 µM
TGI [5]: > 100 µM
TGI [55]: > 100 µM
TGI [59]: > 100 µM
TGI [6]: > 100 µM
TGI [7]: > 100 µM
TGI [8]: > 100 µM
TGI [9]: > 100 µM
TGI [10]: > 100 µM
TGI [11]: > 100 µM
TGI [12]: > 100 µM
TGI [14]: > 100 µM
TGI [15]: > 100 µM
TGI [17]: > 100 µM
TGI [18]: > 100 µM
TGI [19]: > 100 µM
TGI [20]: > 100 µM
TGI [21]: > 100 µM
TGI [22]: > 100 µM
TGI [23]: > 100 µM
TGI [24]: > 100 µM
TGI [25]: > 100 µM
TGI [27]: > 100 µM
TGI [28]: > 100 µM
TGI [29]: > 100 µM
TGI [31]: > 100 µM
TGI [32]: > 100 µM
TGI [33]: > 100 µM
TGI [34]: > 100 µM
TGI [35]: > 100 µM
TGI [36]: > 100 µM
TGI [37]: > 100 µM
TGI [57]: > 100 µM
TGI [38]: > 100 µM
TGI [39]: > 100 µM
TGI [40]: > 100 µM
TGI [41]: > 100 µM
TGI [42]: > 100 µM
TGI [44]: > 100 µM
TGI [45]: > 100 µM
TGI [46]: > 100 µM
TGI [47]: > 100 µM
TGI [48]: > 100 µM
TGI [49]: > 100 µM
TGI [51]: > 100 µM
TGI [52]: > 100 µM
TGI [53]: > 100 µM
TGI [54]: > 100 µM

CO/N=C(/C(=O)N(C(=O)/C(=N/OC)c1csc(NC(c2ccccc2)(c2ccccc2)c2ccccc2)n1)n1cnn(CC(=O)OC(C)(C)C)c1=O)c1csc(NC(c2ccccc2)(c2ccccc2)c2ccccc2)n1
TGI [1]: > 10 µM
TGI [2]: > 10 µM
TGI [3]: > 10 µM
TGI [4]: > 10 µM
TGI [5]: 3.96 µM
TGI [55]: > 10 µM
TGI [59]: > 10 µM
TGI [6]: > 10 µM
TGI [7]: > 10 µM
TGI [8]: > 10 µM
TGI [9]: > 10 µM
TGI [10]: > 10 µM
TGI [11]: > 10 µM
TGI [56]: > 10 µM
TGI [12]: > 10 µM
TGI [14]: > 10 µM
TGI [15]: > 10 µM
TGI [16]: > 10 µM
TGI [17]: > 10 µM
TGI [18]: > 10 µM
TGI [19]: > 10 µM
TGI [20]: > 10 µM
TGI [21]: > 10 µM
TGI [22]: > 10 µM
TGI [23]: > 10 µM
TGI [24]: > 10 µM
TGI [25]: > 10 µM
TGI [26]: > 10 µM
TGI [27]: > 10 µM
TGI [28]: > 10 µM
TGI [29]: > 10 µM
TGI [30]: > 10 µM
TGI [31]: > 10 µM
TGI [32]: > 10 µM
TGI [33]: > 10 µM
TGI [34]: > 10 µM
TGI [35]: > 10 µM
TGI [36]: 3.44 µM
TGI [37]: > 10 µM
TGI [57]: > 10 µM
TGI [38]: > 10 µM
TGI [39]: > 10 µM
TGI [40]: > 10 µM
TGI [41]: 3.92 µM
TGI [42]: > 10 µM
TGI [43]: > 10 µM
TGI [44]: > 10 µM
TGI [45]: > 10 µM
TGI [46]: > 10 µM
TGI [47]: > 10 µM
TGI [48]: > 10 µM
TGI [49]: > 10 µM
TGI [50]: > 10 µM
TGI [51]: > 10 µM
TGI [52]: > 10 µM
TGI [53]: > 10 µM
TGI [54]: > 10 µM
